Reference: patent US8329865B2, “Antimicrobially active peptides” (priority 2001, dated 2012)
No end group written: not given here.

What was measured:
S. aureus dltA = assay type: cell-based, Staphylococcus aureus; settings: 10 mM NaP-10 mM NaCl, CFU assay
Procedure: (§1) Antimicrobial assays. Antimicrobial assays were performed using the CFU assay as previously described (Rieg, S. et al. 2005 J. Immunol. 174:8003-8010, Schittek, B. et al. 2001 Nat. Immunol. 2:1133-1137). The antibacterial activity of DCD-derived peptides and LL-37 was tested against the following bacterial strains: Escherichia coli ATCC 25922, methicillin-susceptible Staphylococcus aureus ATCC 25923 (MSSA), methicillin-resistant Staphylococcus aureus (MRSA; clinical isolate), Staphylococcus epidermidis ATCC 12228, and Pseudomonas aeruginosa ATCC 27853. E. coli ML-35p was generously provided by Robert Lehrer (Department of Medicine, Center for Health Sciences, Los Angeles, Calif.) and cultivated on Luria-Bertani (LB) plates containing 50 μg of ampicillin/ml. This strain constitutively expresses cytoplasmic […] but lacks lactose permease (Lehrer, R. I. et al. 1988 J. Immunol. Methods 108:153-158). The bacterial membrane mutants Staphylococcus aureus mprF and dltA and Staphylococcus epidermidis Δica and the corresponding wild-type strains S. aureus 113 and S. epidermidis 1457 were previously described (Gotz, F. 2002 Mol. Microbiol. 43:1367-1378, Peschel, A. et al. 2001 J. Exp. Med. 193:1067-1076). Bacterial cultures were grown to mid-exponential growth phase and washed three times with 10 mM sodium phosphate buffer-10 mM NaCl (pH 7.0). The bacterial concentration was estimated photometrically at 600 nm. Absorbance of 1.0 corresponded to 8.56×10^8/ml for E. coli; 1×10^8/ml for E. coli ML-35p; 1.97×10^8/ml for S. aureus, MRSA, and the wild-type and membrane mutants of S. aureus and S. epidermidis; and 5.07×10^8/ml for P. aeruginosa.
(§2) After dilution to a concentration of 10^6 CFU/ml, 10-μl portions of the dilutions were incubated at 37° C. for 2 to 4 h with the respective peptide diluted in water in a total volume of 30 μl in 10 mM sodium phosphate buffer-10 mM NaCl (pH 7.0). After incubation, the cells were diluted 1:100 in 10 mM sodium phosphate buffer-10 mM NaCl (pH 7.0), and 90 μl of the diluted bacterial suspension was plated in triplicates on blood agar. Bacterial colonies were counted after incubation for 18 to 24 h at 37° C. The antimicrobial activity was calculated by using [(cell survival after peptide incubation)/(cell survival in buffer without peptide)×100]. The LC90 describes the lethal concentration of the current synthetic peptide in μg/ml or μM that leads to a 90% reduction of CFU compared to the buffer control.
(§3) ^aThe 90% inhibitory concentration (IC90) is the concentration of peptide in μg/ml (or in μM [in parentheses]) able to kill 90% of the microorganisms in 10 mM NaP-10 mM NaCl in a CFU assay compared to the control incubated only in buffer without peptide. ND, not determined.

S. aureus mprF = assay type: cell-based, Staphylococcus aureus; settings: 10 mM NaP-10 mM NaCl, CFU assay
Procedure: as §1, §2, §3

[1] = system: S. aureus (MSSA) ATCC 25923; assay type: cell-based, Staphylococcus aureus
Procedure: as §1, §2, §3

[2] = system: S. epidermidis ATCC 12228; assay type: cell-based, Staphylococcus epidermidis
Procedure: as §1, §2, §3

S. epidermidis Δica = assay type: cell-based, Staphylococcus epidermidis; settings: 10 mM NaP-10 mM NaCl, CFU assay
Procedure: as §1, §2, §3

P. aeruginosa ATCC 27853 = assay type: cell-based, Pseudomonas aeruginosa
Procedure: as §1, §2, §3

E. coli ML-35p = assay type: cell-based, Escherichia coli; settings: 10 mM NaP-10 mM NaCl, CFU assay
Procedure: as §1, §2, §3

E. coli ATCC 25922 = assay type: cell-based, Escherichia coli
Procedure: as §1, §2, §3

[3] = system: Escherichia coli, Staphylococcus aureus, Enterococcus faecalis and Candida albicans; experiment: CFU test (colony-forming units), Example 4; assay type: cell-based; settings: sodium phosphate buffer, 37° C., 3 h, 4 h or overnight
Procedure: The antimicrobial effect of said peptides was carried out by a CFU test (test for colony-forming units) as described for the defensins by Valore et al., “Human Beta-Defensin-1: An Antimicrobial Peptide of Urogenital Tissues”, J Clin Invest 101, 1633-1642 (1998).
The test of the novel peptides was carried out with Escherichia coli, Staphylococcus aureus, Enterococcus faecalis and Candida albicans. E. coli was incubated in LB medium, E. faecalis and S. aureus in Columbia medium (Difko, BD Heidelberg) and C. albicans in casein hydrolysate medium (Merck, Darmstadt). The amounts of bacteria and yeasts were determined by photometry. The bacterial strains were incubated to an optical density of […] at 600 nm and the yeast was incubated to an optical density of 0.4-0.6 at 450 nm. The amount of the organisms was determined by plating various dilutions as follows: an OD of 1 at 600 nm is equivalent to 8.2×10^9/ml for E. coli, 1.9×10^10/ml for S. aureus and 9.0×10^9/ml for E. faecalis, and an OD of 1 at […] is equivalent to 1.4×10^8/ml for C. albicans.
The cells were washed twice with 10 mM sodium phosphate buffer (pH 7.4) and diluted to 2-3×10^7 cells/ml (E. coli, E. faecalis), 5.7×10^7 cells/ml (S. aureus) or 5×10^5 cells/ml (C. albicans) in phosphate buffer.
The cells were incubated with various amounts of the peptides in 200 μl of sodium phosphate buffer at 37° C. for 3 h, 4 h or overnight (21-24 h). The cells were diluted 1:10 to 1:100 for the bacteria and 1:500 to 1:5000 for the yeast, and 50 μl, 100 μl and 200 μl were plated on appropriate agar plates. The plates were incubated at 37° C. overnight, and the number of colonies was counted. The antimicrobial effect of the peptides has been stated as percentage of killed cells: [1−(cell survival after incubation with the peptide)/(cell survival after control incubation)]×100.

S. aureus (ATCC 25923) = experiment: TEM and IEM of peptide-treated bacteria; assay type: cell-based, Staphylococcus aureus
Procedure: FIG. 10. Morphology of peptide-treated S. aureus. […] As a negative control cells were incubated in buffer without peptide. For the immune-EM, bacteria were incubated with a polyclonal antiserum to DCD-1, and the reactivity was detected by immunogold labeling. Seen is the binding of DCD to the bacterial surface.
TEM and IEM. Liquid cultures of S. aureus (ATCC 25923) cells grown up to mid-logarithmic phase were washed twice in 10 mM sodium phosphate buffer (pH 7.4). […] In parallel, antimicrobial assays with both peptides were performed which confirmed the antibacterial activity of both peptides. For immune electron microscopy (IEM), cells were fixed in PLP and centrifuged, and the resulting bacterial pellet was embedded in 3.5% agarose at 37° C. and cooled on ice. Small parts of agarose blocks were embedded in Lowicryl (Polysciences, Eppelheim, Germany). Ultrathin sections (50 nm) were mounted on Formvar-coated nickel grids and incubated with rabbit anti-DCD, followed by 10-nm gold-conjugated goat anti-rabbit immunoglobulin G (Auroprobe EM; Amersham, Freiburg, Germany). In control samples the primary antibody was omitted. Samples were examined by using a Zeiss 109 transmission electron microscope (Zeiss, Oberkochen, Germany). For transmission EM (TEM) bacterial pellets were fixed in Karnovsky's fixative, postfixed in 1% osmium tetroxide, and embedded in Epon.

Molecule: LEKGLDGAKKAVGGLGKLGKDAVEDLESVGKGAVHDVKDVLDSVL [LEK-45]
- IC90 (S. aureus dltA): > 200 µg/mL
- IC90 (S. aureus mprF): > 200 µg/mL
- IC90 [1]: >200 (>44) μg/ml
- IC90 [2]: 200 (44) μg/ml
- IC90 (S. epidermidis Δica): > 200 µg/mL
- IC90 (P. aeruginosa ATCC 27853): >200 (>44) μg/ml
- IC90 (E. coli ML-35p): > 200 µg/mL
- IC90 (E. coli ATCC 25922): >200 (>44) μg/ml

Molecule: SSLLEKGLDGAKKAVGGLGKLGK [SSL-23]
- IC90 (S. aureus dltA): 10 µg/mL
- IC90 (S. aureus mprF): 50 µg/mL
- IC90 [1]: 10 µg/mL
- IC90 [2]: 8 µg/mL
- IC90 (S. epidermidis Δica): >200 µg/mL
- IC90 (P. aeruginosa ATCC 27853): >200 µg/mL
- IC90 (E. coli ATCC 25922): 10 µg/mL

Molecule: SSLLEKGLDGAKKAVGGLGKLGKDA [SSL-25]
- IC90 (S. aureus dltA): >200 µg/mL
- IC90 (S. aureus mprF): >200 µg/mL
- IC90 [1]: 48 µg/mL
- IC90 [2]: >200 µg/mL
- IC90 (P. aeruginosa ATCC 27853): 200 µg/mL
- IC90 (E. coli ML-35p): 9 µg/mL
- IC90 (E. coli ATCC 25922): 10 µg/mL

Molecule: SSLLEKGLDGAKKAVGGLGKLGKDAVEDL [SSL-29]
- IC90 (S. aureus mprF): 180 µg/mL
- IC90 [1]: >200 (>69) μg/ml
- IC90 [2]: 200 (69) μg/ml
- IC90 (P. aeruginosa ATCC 27853): >200 (>69) μg/ml
- IC90 (E. coli ML-35p): > 200 µg/mL
- IC90 (E. coli ATCC 25922): >200 (>69) μg/ml

Molecule: SSLLEKGLDGAKKAVGGLGKLGKDAVEDLESVGKGAVHDVKDVLDSV (synthetic fragment of DCD protein) [DCD-1]
- antimicrobial effect (percentage of killed cells) [3]: quantity-dependent antimicrobial effect
- morphological changes of S. aureus (transmission EM) (S. aureus (ATCC 25923); 100 μg/ml for 4 h): no signs of cell wall damage. Instead, we observed cellular disintegration
- localisation of peptide on bacteria (immune-EM) (S. aureus (ATCC 25923); antiserum to DCD-1, immunogold labeling): able to bind to the cell surface but is not found in the bacterial cytoplasm

Molecule: SSLLEKGLDGAKKAVGGLGKLGKDAVEDLESVGKGAVHDVKDVLDSVL [DCD-1L]
- IC90 (S. aureus dltA): 6 µg/mL
- IC90 (S. aureus mprF): 50 µg/mL
- IC90 [1]: 45 µg/mL
- IC90 [2]: 10 µg/mL
- IC90 (S. epidermidis Δica): >200 µg/mL
- IC90 (P. aeruginosa ATCC 27853): >200 µg/mL
- IC90 (E. coli ML-35p): 30 µg/mL
- IC90 (E. coli ATCC 25922): 45 µg/mL

Molecule: YDPEAASAPGSGNPCHEASAAQKENAGEDP [Y-P30, survival promoting peptide Y-P30 with one amino acid replaced, reference compound]
- antimicrobial effect (percentage of killed cells) [3]: no appreciable antimicrobial effect

B1: DCD protein: DCD protein comprising the sequence SEQ ID No: 1, 110 amino acid residues (protein, listed as Homo sapiens)
chain: MRFMTLLFLTALAGALVCAYDPEAASAPGSGNPCHEASAAQKENAGEDPGLARQAPKPRKQRSSLLEKGLDGAKKAVGGLGKLGKDAVEDLESVGKGAVHDVKDVLDSVL
- antimicrobial effect (percentage of killed cells) [3]: toxic
